Reference: patent US9586962B2, “Disubstituted octahydropyrrolo [3,4-C] pyrroles as orexin receptor modulators” (Janssen Pharmaceutica NV, priority 2011, dated 2017)

target: human orexin 2 receptor (Homo sapiens (Human), UniProt O43614); test: Human orexin 2 receptor Ca2+ mobilization assay (FLIPR, PFSK cells, orexin B 100 nM); type: cell-based; details: modified Cheng-Prusoff correction, read-out: OR 2 Kb
Method: Human Orexin 2 Receptor Ca^2+ Mobilization Assay
Cells were seeded on to 96-well Packard viewplates at a density of 50,000 cells/well and incubated overnight at 37° C., 5% CO2. The cells were dye-loaded with 4 μM Ca^2+ dye Fluo-3AM in serum-free DMEM/F-12 with 2.5 mM probenecid and incubated at 37° C., 5% CO2 for one hour. Cells were pre-incubated with compounds (diluted in DMEM/F-12) for 30 minutes before agonist (orexin B, 100 nM) stimulation. Ligand-induced Ca^2+ release was measured using a Fluorometric Imaging Plate Reader (FLIPR, Molecular Devices, Sunnyvale, Calif.). Functional responses were measured as peak fluorescence intensity minus basal. The concentration of agonist that produced a half-maximal response is represented by the EC50 value. Antagonistic potency values were converted to apparent pKB values using a modified Cheng-Prusoff correction. Apparent pKB=−log IC50/1+[conc agonist/EC50]. Data are expressed as mean±S.E.M, the designation of NT means not tested.

Chain of human orexin 2 receptor (O43614 whole entry): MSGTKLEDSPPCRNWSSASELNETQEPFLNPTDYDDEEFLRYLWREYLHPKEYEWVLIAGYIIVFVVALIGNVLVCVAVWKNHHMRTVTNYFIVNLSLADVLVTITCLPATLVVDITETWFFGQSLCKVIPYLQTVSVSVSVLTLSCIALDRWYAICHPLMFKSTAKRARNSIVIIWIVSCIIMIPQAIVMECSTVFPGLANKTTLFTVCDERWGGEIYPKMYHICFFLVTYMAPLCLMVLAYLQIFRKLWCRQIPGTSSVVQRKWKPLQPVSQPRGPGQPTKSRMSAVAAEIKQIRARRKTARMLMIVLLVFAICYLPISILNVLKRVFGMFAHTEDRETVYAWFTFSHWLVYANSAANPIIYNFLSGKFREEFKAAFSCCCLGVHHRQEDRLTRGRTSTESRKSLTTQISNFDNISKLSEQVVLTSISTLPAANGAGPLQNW

| Structure (SMILES) | Kb [nM] |
| --- | --- |
| Cc1cc(C)nc(N2CC3CN(C(=O)c4ccccc4-c4cccs4)CC3C2)n1 (centres unmarked) [Example 43, 2-(4,6-Dimethylpyrimidin-2-yl)-5-[(2-thiophen-2-ylphenyl)carbonyl]octahydro-pyrrolo[3,4-c]pyrrole] | 10 |
| Cc1nc(N2CC3CN(C(=O)c4cccc(F)c4-n4nccn4)CC3C2)nc(C)c1C (centres unmarked) [Example 240, (3-Fluoro-2-(2H-1,2,3-triazol-2-yl)phenyl)(5-(4,5,6-trimethylpyrimidin-2-yl)hexahydropyrrolo[3,4-c]pyrrol-2(1H)-yl)methanone] | 3 |
| CCOc1ccc2ccccc2c1C(=O)N1CC2CN(c3nccc(-c4ccccc4)n3)CC2C1 (centres unmarked) [Example 126, 2-[(2-Ethoxynaphthalen-1-yl)carbonyl]-5-(4-phenylpyrimidin-2-yl)octahydro pyrrolo[3,4-c]pyrrole] | 100 |
| Cc1ccc(-c2ncccn2)c(C(=O)N2CC3CN(c4cc(C)nc(C(F)(F)F)n4)CC3C2)c1 (centres unmarked) [Example 112, 2-[(5-Methyl-2-pyrimidin-2-ylphenyl)carbonyl]-5-[6-methyl-2-(trifluoromethyl)pyrimidin-4-yl]octahydropyrrolo[3,4-c]pyrrole] | 20 |
| Cc1cc(C)nc(N2CC3CN(C(=O)c4c(C)ccc5ccccc45)CC3C2)n1 (centres unmarked) [Example 47, 2-(4,6-Dimethylpyrimidin-2-yl)-5-[(2-methylnaphthalen-1-yl)carbonyl]octahydro-pyrrolo[3,4-c]pyrrole] | 32 |
| Cc1nc(N2CC3CN(C(=O)c4ncccc4-n4nccn4)CC3C2)nc(C)c1F (centres unmarked) [Example 325, 2-(5-Fluoro-4,6-dimethylpyrimidin-2-yl)-5-{[3-(2H-1,2,3-triazol-2-yl)pyridin-2-yl]carbonyl}octahydropyrrolo[3,4-c]pyrrole] | 2 |
| CN(C)c1cc(N2CC3CN(C(=O)c4cc(F)ccc4-n4nccn4)CC3C2)nc(C(F)(F)F)n1 (centres unmarked) [Example 9, 6-[5-{[5-Fluoro-2-(2H-1,2,3-triazol-2-yl)phenyl]carbonyl}hexahydropyrrolo[3,4-c]pyrrol-2(1H)-yl]-N,N-dimethyl-2-(trifluoromethyl)pyrimidin-4-amine] | 56 |
| COc1ccc(-n2nccn2)c(C(=O)N2CC3CN(c4cnc5cc(F)c(F)cc5n4)CC3C2)c1 (centres unmarked) [Example 245, (5-(6,7-Difluoroquinoxalin-2-yl)hexahydropyrrolo[3,4-c]pyrrol-2(1H)-yl)(5-methoxy-2-(2H-1,2,3-triazol-2-yl)phenyl)methanone] | 15 |
| Cc1cc(C)nc(N2CC3CN(C(=O)c4ccccc4-c4ccccn4)CC3C2)n1 (centres unmarked) [Example 69, 2-(4,6-Dimethylpyrimidin-2-yl)-5-[(2-pyridin-2-ylphenyl)carbonyl]octahydro-pyrrolo[3,4-c]pyrrole] | 8 |
| Cc1cc(C)nc(N2CC3CN(C(=O)c4occc4-c4ccccc4)CC3C2)n1 (centres unmarked) [Example 13, 2-(4,6-Dimethylpyrimidin-2-yl)-5-[(3-phenylfuran-2-yl)carbonyl]octahydropyrrolo[3,4-c]pyrrole] | 79 |
| Cc1cc(C)nc(N2CC3CN(C(=O)c4cc(F)ccc4-c4ncccn4)CC3C2)n1 (centres unmarked) [Example 74, 2-(4,6-Dimethylpyrimidin-2-yl)-5-[(5-fluoro-2-pyrimidin-2-ylphenyl)carbonyl]octahydropyrrolo[3,4-c]pyrrole] | 10 |
| Cc1cc(C)nc(N2CC3CN(C(=O)c4cccc(F)c4-c4ncccn4)CC3C2)n1 (centres unmarked) [Example 283, 2-(4,6-Dimethylpyrimidin-2-yl)-5-[(3-fluoro-2-pyrimidin-2-ylphenyl)carbonyl]octahydropyrrolo[3,4-c]pyrrole] | 2 |
| COc1ccc(-n2nccn2)c(C(=O)N2CC3CN(c4nc(C)c(C)c(C)n4)CC3C2)c1 (centres unmarked) [Example 241, (5-Methoxy-2-(2H-1,2,3-triazol-2-yl)phenyl)(5-(4,5,6-trimethylpyrimidin-2-yl)hexahydropyrrolo[3,4-c]pyrrol-2(1H)-yl)methanone] | 7 |
| Cc1cc(C)nc(N2CC3CN(C(=O)c4c(F)cccc4-c4nc(C)no4)CC3C2)n1 (centres unmarked) [Example 315, 2-(4,6-Dimethylpyrimidin-2-yl)-5-{[2-fluoro-6-(3-methyl-1,2,4-oxadiazol-5-yl)phenyl]carbonyl}octahydropyrrolo[3,4-c]pyrrole] | 10 |

Now from value to compound:

| Kb [nM] | Structure (SMILES) |
| --- | --- |
| 50 | Cc1cc(C)nc(N2CC3CN(C(=O)c4c(-n5nccn5)ccc5c4OCO5)CC3C2)n1 (centres unmarked) [Example 327, [5-(4,6-Dimethyl-pyrimidin-2-yl)-hexahydro-pyrrolo[3,4-c]pyrrol-2-yl]-(5-[1,2,3]triazol-2-yl-benzo[1,3]dioxol-4-yl)methanone] |
| 7 | COc1ccc(C(=O)N2CC3CN(c4nc(C)cc(C)n4)CC3C2)c(-c2ncccn2)c1 (centres unmarked) [Example 272, (5-(4,6-Dimethylpyrimidin-2-yl)hexahydropyrrolo[3,4-c]pyrrol-2(1H)-yl)(4-methoxy-2-(pyrimidin-2-yl)phenyl)methanone] |
| 6 | O=C(c1cccc(F)c1-c1ncccn1)N1CC2CN(c3ncc4cc(F)ccc4n3)CC2C1 (centres unmarked) [Example 243, (3-Fluoro-2-(pyrimidin-2-yl)phenyl)(5-(6-fluoroquinazolin-2-yl)hexahydropyrrolo[3,4-c]pyrrol-2(1H)-yl)methanone] |
| 9 | Cc1cc(C)nc(N2CC3CN(C(=O)c4ccccc4-c4nnc[nH]4)CC3C2)n1 (centres unmarked) [Example 14, 2-(4,6-Dimethylpyrimidin-2-yl)-5-{[2-(1H-1,2,4-triazol-5-yl)phenyl]carbonyl}octahydro-pyrrolo[3,4-c]pyrrole] |
| 11 | Cc1nc(N2CC3CN(C(=O)c4ccccc4-c4ncn(C)n4)CC3C2)ncc1F (centres unmarked) [Example 312, 2-(5-Fluoro-4-methylpyrimidin-2-yl)-5-{[2-(1-methyl-1H-1,2,4-triazol-3-yl)phenyl]carbonyl}octahydropyrrolo[3,4-c]pyrrole] |
| 2 | Cc1nc(N2CC3CN(C(=O)c4ccccc4-c4ncn(C)n4)CC3C2)nc(C)c1Cl (centres unmarked) [Example 320, 2-(5-Chloro-4,6-dimethylpyrimidin-2-yl)-5-{[2-(1-methyl-1H-1,2,4-triazol-3-yl)phenyl]carbonyl}octahydropyrrolo[3,4-c]pyrrole] |
| 200 | O=C(c1ccccc1-c1ccccc1)N1CC2CN(c3nccc(-c4ccccc4)n3)CC2C1 (centres unmarked) [Example 164, 2-(Biphenyl-2-ylcarbonyl)-5-(4-phenylpyrimidin-2-yl)octahydropyrrolo[3,4-c]pyrrole] |
| 50 | Cc1cnc(C)c(N2CC3CN(C(=O)c4ccccc4-c4ncn[nH]4)CC3C2)n1 (centres unmarked) [Example 213, [5-(3,6-Dimethyl-pyrazin-2-yl)-hexahydro-pyrrolo[3,4-c]pyrrol-2-yl]-[2-(2H-[1,2,4]triazol-3-yl)-phenyl]-methanone] |
| 10 | COc1cc(N2CC3CN(C(=O)c4c(F)cccc4-n4nccn4)CC3C2)nc(N(C)C)n1 (centres unmarked) [Example 1, 4-[5-{[2-Fluoro-6-(2H-1,2,3-triazol-2-yl)phenyl]carbonyl}hexahydropyrrolo[3,4-c]pyrrol-2(1H)-yl]-6-methoxy-N,N-dimethylpyrimidin-2-amine] |
| 40 | Cc1cc(C)nc(N2CC3CN(C(=O)c4cccc5ccccc45)CC3C2)n1 (centres unmarked) [Example 93, 2-(4,6-Dimethylpyrimidin-2-yl)-5-(naphthalen-1-ylcarbonyl)octahydropyrrolo[3,4-c]pyrrole] |
| 6 | Cc1noc(-c2ccccc2C(=O)N2CC3CN(c4nc(C)c(C)c(C)n4)CC3C2)n1 (centres unmarked) [Example 309, 2-{[2-(3-Methyl-1,2,4-oxadiazol-5-yl)phenyl]carbonyl}-5-(4,5,6-trimethylpyrimidin-2-yl)octahydropyrrolo[3,4-c]pyrrole] |
| 40 | CCOc1ccc2ccccc2c1C(=O)N1CC2CN(c3nccc(OC)n3)CC2C1 (centres unmarked) [Example 56, 2-[(2-Ethoxynaphthalen-1-yl)carbonyl]-5-(4-methoxypyrimidin-2-yl)octahydropyrrolo[3,4-c]pyrrole] |
| 25 | Cc1cnc(C)c(N2CC3CN(C(=O)c4c(F)cccc4-n4nccn4)CC3C2)n1 (centres unmarked) [Example 101, 2-(3,6-Dimethylpyrazin-2-yl)-5-{[2-fluoro-6-(2H-1,2,3-triazol-2-yl)phenyl]carbonyl}octahydropyrrolo[3,4-c]pyrrole] |
| 15 | Cc1noc(-c2ccccc2C(=O)N2CC3CN(c4ncc(F)c(C)n4)CC3C2)n1 (centres unmarked) [Example 310, 2-(5-Fluoro-4-methylpyrimidin-2-yl)-5-{[2-(3-methyl-1,2,4-oxadiazol-5-yl)phenyl]carbonyl}octahydropyrrolo[3,4-c]pyrrole] |
| 40 | O=C(c1ccccc1-c1cccs1)N1CC2CN(c3nccc(-c4cn[nH]c4)n3)CC2C1 (centres unmarked) [Example 62, 2-[4-(1H-Pyrazol-4-yl)pyrimidin-2-yl]-5-[(2-thiophen-2-ylphenyl)carbonyl]octahydro-pyrrolo[3,4-c]pyrrole] |
| 63 | O=C(c1cc(F)ccc1-c1ncccn1)N1CC2CN(c3nccc(-c4ccccc4)n3)CC2C1 (centres unmarked) [Example 113, 2-[(5-Fluoro-2-pyrimidin-2-ylphenyl)carbonyl]-5-(4-phenylpyrimidin-2-yl)octahydropyrrolo[3,4-c]pyrrole] |
| 3 | Cc1cc(C)nc(N2CC3CN(C(=O)c4cccc(F)c4-c4ccccn4)CC3C2)n1 (centres unmarked) [Example 472, (5-(4,6-dimethylpyrimidin-2-yl)hexahydropyrrolo[3,4-c]pyrrol-2(1H)-yl)(3-fluoro-2-(pyridin-2-yl)phenyl)methanone] |
| 63 | O=C(c1ccccc1-n1nccn1)N1CC2CN(c3nc4ccccc4o3)CC2C1 (centres unmarked) [Example 144, 2-[5-{[2-(2H-1,2,3-Triazol-2-yl)phenyl]carbonyl}hexahydropyrrolo[3,4-c]pyrrol-2(1H)-yl]-1,3-benzoxazole] |
